The results in this text go back to BindingDB's records for doi:10.1124/mol.64.1.143 (Abbott Laboratories, 2003).

In this experiment the target is T1, Calcium-activated potassium channel subunit beta (Sus scrofa, UniProt C0KY85).
T1 sequence (C0KY85 whole entry): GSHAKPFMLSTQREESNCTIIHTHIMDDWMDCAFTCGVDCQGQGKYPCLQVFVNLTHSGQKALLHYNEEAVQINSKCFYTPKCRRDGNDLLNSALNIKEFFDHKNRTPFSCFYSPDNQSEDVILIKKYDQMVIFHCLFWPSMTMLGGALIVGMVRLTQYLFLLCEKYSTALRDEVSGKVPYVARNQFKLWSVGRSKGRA

Several values for one entry are separate records, joined by “and”; a condition that tells them apart may be missing. Identical values can stand only once.

A word on the Ki: it is the dissociation constant of the complex between target and ligand, obtained from inhibition or displacement.

Take `CCOc1ccccc1N=C(C[N+](=O)[O-])NC(C)C(C)(C)C` (stereo not drawn) [CAS_3038059]: the Ki is 41.3 nM and 16 nM.

`CCC(C)(C)NC(=NC#N)Nc1cccnc1` [NSC_43345]: the inhibition constant (Ki) is 20.6 nM and 10.5 nM.

Regarding `CC1(C)Oc2ccc(C#N)cc2C(N2CCCC2=O)C1O` (stereo not drawn) [NSC_93504], the Ki was 542 nM and 157 nM.

Turning to `N#Cc1cccc(C2C3=C(CCCC3=O)N=C3CCCC(=O)C32)c1` (stereo not drawn) [zm244085], the Ki is 2770 nM and 671 nM.

With `C[C@](O)(C(=O)Nc1ccc(C(=O)c2ccccc2)cc1)C(F)(F)F` [ZD-6169], the inhibition constant (Ki) is 630 nM and 451 nM.

As for `CC1=NS(=O)(=O)c2cc(Cl)ccc2N1` [NSC_3019], the inhibition constant Ki is above 10000 nM.

Regarding `CC(N/C(=N\C#N)Nc1ccncc1)C(C)(C)C` (stereo not drawn) [NSC_4826], the inhibition constant Ki was 251 nM and 104 nM.

Consider `O=C1COCC2=NC3=C([C@H](c4ccc(F)c(I)c4)C12)S(=O)(=O)CC3` (stereo partly drawn) [A-312110], for which the Ki stood at 4.9 nM.
